# Reference: article PMC10821532, “Sex and Cross-Sex Testosterone Treatment Alters Gamma-Hydroxybutyrate Acid Toxicokinetics and Toxicodynamics in Rats” (Pharmaceutics, 2024)
# Where two headings read alike, the source gives them in different places.
# Assay: GHB toxicokinetic study, i.v. bolus, plasma and urine up to 8 h, noncompartmental analysis
# Format: in vivo, Sprague Dawley rats
# Details: rat, iv
# Method: Male and female Sprague Dawley (SD) rats, ovariectomized (OVX) females, and castrated (CST) males were obtained from Charles River (Wilmington, MA, USA) at 8 weeks of age. The animals were housed under controlled temperature and humidity with an artificial 12 h light/dark cycle, and food and water were available ad libitum. The animals were acclimatized for at least one week before experiments. Hormone treatment was conducted by implanting OVX female and CST male rats subcutaneously with 60-day release pellets containing 7.5 mg testosterone or corresponding placebo pellets (Innovative Research of America) at 10 weeks of age. After 21 days of hormone exposure, rats were utilized in toxicokinetic studies. Age-matched male and female rats were used as control groups. Female rats in the estrus stage were selected for the study. Estrus cycle stages of female rats were monitored daily by vaginal lavage smear, as described in previously published literature. The Institutional Animal Care and Use Committee (IACUC) at the University of the Pacific approved all experiments.
# Jugular vein cannulas were surgically implanted under anesthesia with ketamine/xylazine. Cannulas were flushed daily with heparinized saline to maintain patency. Rats were allowed a minimum of 72 h for recovery from surgery before the experiments were conducted. GHB was administered intravenously as a 1000 mg/kg i.v. bolus or 1500 mg/kg iv bolus with or without AR-C155858 (1 mg/kg i.v. bolus) via a jugular vein cannula to the animals at 13 weeks of age (N = 5–7 per group). Rats were dosed in metabolic cages with ad libitum access to water to allow for the concurrent collection of blood and urine samples for up to 8 h. GHB was administered as a 300 mg/mL solution in sterile water, and the time of administration was considered as time 0. AR-C155858 was administered as a 1 mg/mL solution in 10% cyclodextrin in normal saline 5 min after GHB administration. Blood samples (200 μL) were taken from the jugular vein cannula at different time points: 5, 10, 20, 30, 60, 90, 120, 180, 240, 270, 300, and 330 min for 1000 mg/kg and 10, 30, 60, 90, 120, 180, 240, 270, 300, 330, 360, and 390/480 min for 1500 mg/kg bolus with or without AR-C155858. Plasma samples were separated by centrifugation and stored at −20 °C. Urine samples were collected at 120, 240, and 360 min for 1000 mg/kg and 120, 240, and 390/480 min for 1500 mg/kg bolus with or without AR-C155858 post-dose; the total urine volume was determined, and the samples were stored at −20 °C.
# GHB in plasma and urine were quantified using a validated liquid chromatography/tandem mass spectrometry (LC/MS/MS) assay that was described previously. Briefly, for the preparation of plasma standards and quality controls (QCs), 5 μL of GHB-d6 and 5 μL of standard stock solution or QC stock solution were added to 45 μL of blank plasma. For each unknown plasma sample, 5 μL of GHB-d6 was added to 50 μL of plasma. Protein precipitation was then performed by the addition of 800 μL of acetonitrile with 0.1% formic acid, followed by centrifugation at 10,000 rpm for 20 min. 750 μL of the supernatant was transferred to a clean disposable glass tube and evaporated using a MultiVap Nitrogen Evaporator (Organomation, Berlin, MA, USA) under a nitrogen stream. Dried samples were reconstituted in 250 μL of 95:5 double-distilled water—acetonitrile with 0.1% acetic acid. For urine standards and QCs, 25 μL of blank urine, 5 μL of standard or QC stock solution, 5 μL of GHB-d6, and 465 μL of double-distilled water were mixed. For unknown urine samples, 25 μL of the sample was added to 5 μL of GHB-d6 and 470 μL of double-distilled water. The same LC/MS/MS method was used for GHB plasma and urine analyses. LC/MS/MS equipment consisted of an Agilent 1200 series UPLC consisting of an online degasser, binary pump, and autosampler (Agilent Technologies, Santa Clara, CA, USA) connected to a Agilent 6460 Triple Quad Mass Spectrometer. […]
compound,measurement,setting,value
"O=C(O)CCCO [GHB, Γ-hydroxybutyric acid]",clearance,"female, Sprague Dawley, plasma and urine, 1000 mg/kg, 1000 mg/kg GHB iv, intact female (estrus) rats, read-out: CLm – Metabolic clearance",0.246 ± 0.036 L/h/kg
same,CL renal,"female, Sprague Dawley, plasma and urine, 1500 mg/kg, 1500 mg/kg GHB iv, OVX testosterone placebo rats, read-out: CLR (renal clearance)",0.21 ± 0.03 L/h/kg
same,CL renal,"female, Sprague Dawley, plasma and urine, 1500 mg/kg, 1500 mg/kg GHB iv, OVX testosterone rats, read-out: CLR (renal clearance)",0.162 ± 0.09 L/h/kg
same,CL renal,"female, Sprague Dawley, plasma and urine, 1500 mg/kg, 1500 mg/kg GHB iv, intact female (estrus) rats, read-out: CLR (renal clearance)",0.222 ± 0.066 L/h/kg
same,clearance,"female, Sprague Dawley, plasma, 1000 mg/kg, 1000 mg/kg GHB iv, OVX testosterone placebo rats, read-out: CL - Total clearance",0.33 ± 0.018 L/h/kg
same,clearance,"female, Sprague Dawley, plasma, 1000 mg/kg, 1000 mg/kg GHB iv, intact female (estrus) rats, read-out: CL - Total clearance",0.408 ± 0.042 L/h/kg
same,clearance,"female, Sprague Dawley, plasma, 1500 mg/kg, 1500 mg/kg GHB iv, intact female (estrus) rats, read-out: CL (total clearance)",0.282 ± 0.066 L/h/kg
same,CL renal,"female, Sprague-Dawley, plasma and urine, 1500 mg/kg, 1500 mg/kg GHB + 1mg/kg AR-C 155858 iv, OVX testosterone placebo rats, read-out: CLR (renal clearance)",0.42 ± 0.084 L/h/kg
same,clearance,"female, Sprague-Dawley, plasma and urine, 1500 mg/kg, 1500 mg/kg GHB + 1mg/kg AR-C 155858 iv, OVX testosterone placebo rats, read-out: CLm (metabolic clearance)",0.162 ± 0.054 L/h/kg
same,CL renal,"female, Sprague-Dawley, plasma and urine, 1500 mg/kg, 1500 mg/kg GHB + 1mg/kg AR-C 155858 iv, OVX testosterone rats, read-out: CLR (renal clearance)",0.42 ± 0.054 L/h/kg
same,clearance,"female, Sprague-Dawley, plasma and urine, 1500 mg/kg, 1500 mg/kg GHB + 1mg/kg AR-C 155858 iv, OVX testosterone rats, read-out: CLm (metabolic clearance)",0.144 ± 0.078 L/h/kg
same,CL renal,"female, Sprague-Dawley, plasma and urine, 1500 mg/kg, 1500 mg/kg GHB + 1mg/kg AR-C 155858 iv, intact female (estrus) rats, read-out: CLR (renal clearance)",0.378 ± 0.108 L/h/kg
same,clearance,"female, Sprague-Dawley, plasma and urine, 1500 mg/kg, 1500 mg/kg GHB + 1mg/kg AR-C 155858 iv, intact female (estrus) rats, read-out: CLm (metabolic clearance)",0.132 ± 0.024 L/h/kg
same,clearance,"female, Sprague-Dawley, plasma, 1500 mg/kg, 1500 mg/kg GHB + 1mg/kg AR-C 155858 iv, OVX testosterone placebo rats, read-out: CL (total clearance)",0.582 ± 0.126 L/h/kg
same,clearance,"female, Sprague-Dawley, plasma, 1500 mg/kg, 1500 mg/kg GHB + 1mg/kg AR-C 155858 iv, OVX testosterone rats, read-out: CL (total clearance)",0.564 ± 0.084 L/h/kg
same,clearance,"female, Sprague-Dawley, plasma, 1500 mg/kg, 1500 mg/kg GHB + 1mg/kg AR-C 155858 iv, intact female (estrus) rats, read-out: CL (total clearance)",0.51 ± 0.114 L/h/kg
same,clearance,"female, Sprague-Dawley, plasma, 1500 mg/kg, 1500 mg/kg GHB iv, OVX testosterone placebo rats, read-out: CL (total clearance)",0.342 ± 0.054 L/h/kg
same,CL renal,"male, Sprague Dawley, plasma and urine, 1000 mg/kg, 1000 mg/kg GHB iv, CST testosterone placebo rats, read-out: CLR - Renal clearance",0.18 ± 0.042 L/h/kg
same,clearance,"male, Sprague Dawley, plasma and urine, 1000 mg/kg, 1000 mg/kg GHB iv, CST testosterone placebo rats, read-out: CLm – Metabolic clearance",0.096 ± 0.03 L/h/kg
same,clearance,"male, Sprague Dawley, plasma and urine, 1000 mg/kg, 1000 mg/kg GHB iv, CST testosterone rats, read-out: CLm – Metabolic clearance",0.126 ± 0.024 L/h/kg
same,CL renal,"male, Sprague Dawley, plasma and urine, 1000 mg/kg, 1000 mg/kg GHB iv, intact male rats, read-out: CLR - Renal clearance",0.132 ± 0.024 L/h/kg
same,clearance,"male, Sprague Dawley, plasma and urine, 1000 mg/kg, 1000 mg/kg GHB iv, intact male rats, read-out: CLm – Metabolic clearance",0.144 ± 0.03 L/h/kg
same,CL renal,"male, Sprague Dawley, plasma and urine, 1500 mg/kg, 1500 mg/kg GHB iv, CST testosterone placebo rats, read-out: CLR (renal clearance)",0.174 ± 0.024 L/h/kg
same,CL renal,"male, Sprague Dawley, plasma and urine, 1500 mg/kg, 1500 mg/kg GHB iv, intact male rats, read-out: CLR (renal clearance)",0.252 ± 0.078 L/h/kg
same,clearance,"male, Sprague Dawley, plasma, 1000 mg/kg, 1000 mg/kg GHB iv, CST testosterone placebo rats, read-out: CL - Total clearance",0.276 ± 0.048 L/h/kg
same,clearance,"male, Sprague Dawley, plasma, 1000 mg/kg, 1000 mg/kg GHB iv, CST testosterone rats, read-out: CL - Total clearance",0.318 ± 0.06 L/h/kg
same,clearance,"male, Sprague Dawley, plasma, 1000 mg/kg, 1000 mg/kg GHB iv, intact male rats, read-out: CL - Total clearance",0.276 ± 0.048 L/h/kg
same,clearance,"male, Sprague Dawley, plasma, 1500 mg/kg, 1500 mg/kg GHB iv, intact male rats, read-out: CL (total clearance)",0.288 ± 0.084 L/h/kg
same,CL renal,"male, Sprague-Dawley, plasma and urine, 1000 mg/kg, 1000 mg/kg GHB iv, CST testosterone rats, read-out: CLR - Renal clearance",0.192 ± 0.054 L/h/kg
same,CL renal,"male, Sprague-Dawley, plasma and urine, 1500 mg/kg, 1500 mg/kg GHB + 1mg/kg AR-C 155858 iv, CST testosterone placebo rats, read-out: CLR (renal clearance)",0.324 ± 0.066 L/h/kg
same,clearance,"male, Sprague-Dawley, plasma and urine, 1500 mg/kg, 1500 mg/kg GHB + 1mg/kg AR-C 155858 iv, CST testosterone placebo rats, read-out: CLm (metabolic clearance)",0.15 ± 0.078 L/h/kg
same,CL renal,"male, Sprague-Dawley, plasma and urine, 1500 mg/kg, 1500 mg/kg GHB + 1mg/kg AR-C 155858 iv, CST testosterone rats, read-out: CLR (renal clearance)",0.336 ± 0.072 L/h/kg
same,clearance,"male, Sprague-Dawley, plasma and urine, 1500 mg/kg, 1500 mg/kg GHB + 1mg/kg AR-C 155858 iv, CST testosterone rats, read-out: CLm (metabolic clearance)",0.114 ± 0.006 L/h/kg
same,CL renal,"male, Sprague-Dawley, plasma and urine, 1500 mg/kg, 1500 mg/kg GHB + 1mg/kg AR-C 155858 iv, intact male rats, read-out: CLR (renal clearance)",0.366 ± 0.03 L/h/kg
same,clearance,"male, Sprague-Dawley, plasma and urine, 1500 mg/kg, 1500 mg/kg GHB + 1mg/kg AR-C 155858 iv, intact male rats, read-out: CLm (metabolic clearance)",0.126 ± 0.018 L/h/kg
same,CL renal,"male, Sprague-Dawley, plasma and urine, 1500 mg/kg, 1500 mg/kg GHB iv, CST testosterone rats, read-out: CLR (renal clearance)",0.084 ± 0.036 L/h/kg
same,clearance,"male, Sprague-Dawley, plasma, 1500 mg/kg, 1500 mg/kg GHB + 1mg/kg AR-C 155858 iv, CST testosterone placebo rats, read-out: CL (total clearance)",0.474 ± 0.072 L/h/kg
same,clearance,"male, Sprague-Dawley, plasma, 1500 mg/kg, 1500 mg/kg GHB + 1mg/kg AR-C 155858 iv, CST testosterone rats, read-out: CL (total clearance)",0.45 ± 0.084 L/h/kg
same,clearance,"male, Sprague-Dawley, plasma, 1500 mg/kg, 1500 mg/kg GHB + 1mg/kg AR-C 155858 iv, intact male rats, read-out: CL (total clearance)",0.492 ± 0.036 L/h/kg
same,clearance,"male, Sprague-Dawley, plasma, 1500 mg/kg, 1500 mg/kg GHB iv, CST testosterone placebo rats, read-out: CL (total clearance)",0.294 ± 0.024 L/h/kg
same,clearance,"male, Sprague-Dawley, plasma, 1500 mg/kg, 1500 mg/kg GHB iv, CST testosterone rats, read-out: CL (total clearance)",0.192 ± 0.042 L/h/kg
